Blank lines part the entries; values can stand above or below the compound they belong to. Square brackets hold non-standard residues; d marks the D form. Peptide text beside a SMILES is read from it. Bpa = N[C@@H](Cc1ccc(C(=O)c2ccccc2)cc1)C(=O)O; Nle = CCCC[C@H](N)C(=O)O
Target: T1, GRF receptors ([^125 I-Tyr^10 ]hGRF(1-44)NH2 binding sites in rat adenopituitary) (Rattus norvegicus, UniProt Q02644)
T1 construct: from tissue; host or cells: rat anterior pituitary homogenate
T1 sequence (Q02644 23-423 isoform Q02644-2 limits assumed): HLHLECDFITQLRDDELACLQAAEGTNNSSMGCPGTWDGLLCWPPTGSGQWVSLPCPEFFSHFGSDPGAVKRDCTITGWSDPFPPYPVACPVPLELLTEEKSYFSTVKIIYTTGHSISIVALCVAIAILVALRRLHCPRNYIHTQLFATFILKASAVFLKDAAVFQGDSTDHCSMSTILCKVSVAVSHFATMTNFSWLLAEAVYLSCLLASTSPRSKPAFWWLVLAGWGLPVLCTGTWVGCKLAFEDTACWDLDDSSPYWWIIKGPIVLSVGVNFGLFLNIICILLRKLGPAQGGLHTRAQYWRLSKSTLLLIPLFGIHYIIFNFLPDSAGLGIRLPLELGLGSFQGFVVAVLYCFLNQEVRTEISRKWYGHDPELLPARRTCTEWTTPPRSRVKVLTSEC
Test: Competitive binding assay with [^125 I-Tyr^10 ]hGRF(1-44)NH2 on anterior pituitary homogenates
Conditions: for IC50: mean±SD of 2 or mean±SE of 3 experiments for analogues, mean±SE of 11 for hGRF(1-29)NH2; for Relative affinity: ratio IC50 of hGRF(1-29)NH2 /IC50 analogue; for biological activity compared to that of native GRF: rat adenopituitary
Experimental: The binding of [^125 I-Tyr^10 ]hGRF(1-44)NH2 was performed on anterior pituitary homogenates as previously described (Gaudreau P. et al., J. Biol. Chem., 1992, 35:1864-1869). Briefly, anterior pituitaries (pit.) were dissected out, rinsed and homogenized for 8 sec with a Micro Ultrasonic Cell Disrupter™, in ice-cold 50 mM Tris-HCl buffer, pH 7.4, containing 5 mM MgCl2 and 5 mM EDTA (1 pit./0.5 ml). These homogenates were used immediately. Competition studies were performed using 35-50 pM [^125 I-Tyr^10 ]hGRF(1-44)NH2 as radio-ligand,50 μl of homogenate (70 to 75 μg of protein), and increasing concentrations of Nε-CF-[Lys^31 ]hGRF or other GRF analogues (0-1000 nM) or with 2.4 μM rGRF(1-29)NH2 for determination of non-specific binding, in a total volume of 300 μl of Tris-HCl buffer, pH 7.4, containing 5 mM EDTA, 5 mM MgCl2 and 0.42% BSA. Incubations were carried out at 23° C. for 60 min and stopped by centrifugation (12,000 g, 5 min, at 4° C.). The radioactivity content in the pellet was measured by gamma counting. The affinity of hGRF(1-29)NH2 was tested in each experiment to assess the validity of the assay and determine the relative affinity of the analogues. […] The Hill values indicate that all these peptides bind to the high and low affinity GRF binding sites found in the anterior pituitary.

IC50 (Table 11): 2.49 ± 0.98 nM
Structure (SMILES): CC[C@H](C)[C@H](NC(=O)[C@H](C)NC(=O)[C@H](CC(=O)O)NC(=O)[C@@H](C)NC(=O)[C@@H](N)Cc1ccc(O)cc1)C(=O)N[C@@H](Cc1ccccc1)C(=O)N[C@H](C(=O)N[C@@H](CC(N)=O)C(=O)N[C@@H](CO)C(=O)N[C@H](Cc1ccc(O)cc1)C(=O)N[C@@H](CCCNC(=N)N)C(=O)N[C@@H](CCCCN)C(=O)N[C@H](C(=O)N[C@@H](CC(C)C)C(=O)N[C@H](C)C(=O)N[C@@H](CCC(N)=O)C(=O)N[C@@H](CC(C)C)C(=O)N[C@@H](CO)C(=O)N[C@@H](C)C(=O)N[C@@H](CCCNC(=N)N)C(=O)N[C@@H](CCCCN)C(=O)N[C@@H](CCCCN)C(=O)N[C@@H](CC(C)C)C(=O)N[C@@H](CCC(N)=O)C(=O)N[C@@H](CC(=O)O)C(=O)N[C@H](C(=O)N[C@@H](CCSC)C(=O)N[C@@H](CO)C(=O)N[C@@H](CCCNC(=N)N)C(N)=O)[C@@H](C)CC)C(C)C)[C@@H](C)O [D-Ala^2, D-Tyr^10, D-Ala^15, Lys^22] (H-Y[dA]DAIFTNS[dY]RKVL[dA]QLSARKKLQDIMSR-NH2)

Hill coef. (Table 11): 0.64 ± 0.05
Relative affinity (Table 11): 21 ± 11%
biological activity compared to that of native GRF: preserved or increased
Structure (SMILES): CC[C@H](C)[C@H](NC(=O)[C@H](C)NC(=O)[C@H](CC(=O)O)NC(=O)[C@@H](C)NC(=O)[C@@H](N)Cc1ccc(O)cc1)C(=O)N[C@@H](Cc1ccccc1)C(=O)N[C@H](C(=O)N[C@@H](CC(N)=O)C(=O)N[C@@H](CO)C(=O)N[C@H](Cc1ccc(O)cc1)C(=O)N[C@@H](CCCNC(=N)N)C(=O)N[C@@H](CCCCN)C(=O)N[C@H](C(=O)N[C@@H](CC(C)C)C(=O)NCC(=O)N[C@@H](CCC(N)=O)C(=O)N[C@@H](CC(C)C)C(=O)N[C@@H](CO)C(=O)N[C@@H](C)C(=O)N[C@@H](CCCNC(=N)N)C(=O)N[C@H](CCCCN)C(=O)N[C@@H](CC(C)C)C(=O)N[C@@H](CC(C)C)C(=O)N[C@@H](CCC(N)=O)C(=O)N[C@@H](CC(=O)O)C(=O)N[C@H](C(=O)N[C@@H](CCSC)C(=O)N[C@@H](CO)C(=O)N[C@@H](CCCNC(=N)N)C(N)=O)[C@@H](C)CC)C(C)C)[C@@H](C)O [D-Ala^2, D-Tyr^10, D-Lys^21]

IC50 (Table 11): 0.49 ± 0.27 nM
Structure (SMILES): CC[C@H](C)[C@H](NC(=O)[C@H](C)NC(=O)[C@H](CC(=O)O)NC(=O)[C@@H](C)NC(=O)[C@@H](N)Cc1ccc(O)cc1)C(=O)N[C@@H](Cc1ccccc1)C(=O)N[C@H](C(=O)N[C@@H](CC(N)=O)C(=O)N[C@@H](CO)C(=O)N[C@H](Cc1ccc(O)cc1)C(=O)N[C@@H](CCCNC(=N)N)C(=O)N[C@@H](CCCCN)C(=O)N[C@H](C(=O)N[C@@H](CC(C)C)C(=O)NCC(=O)N[C@@H](CCC(N)=O)C(=O)N[C@@H](CC(C)C)C(=O)N[C@@H](CO)C(=O)N[C@@H](C)C(=O)N[C@@H](CCCNC(=N)N)C(=O)N[C@@H](CCCCN)C(=O)N[C@@H](CCCCN)C(=O)N[C@@H](CC(C)C)C(=O)N[C@@H](CCC(N)=O)C(=O)N[C@@H](CC(=O)O)C(=O)N[C@H](C(=O)N[C@@H](CCSC)C(=O)N[C@@H](CO)C(=O)N[C@@H](CCCNC(=N)N)C(N)=O)[C@@H](C)CC)C(C)C)[C@@H](C)O [D-Ala^2, D-Tyr^10, Lys^22] (H-Y[dA]DAIFTNS[dY]RKVLGQLSARKKLQDIMSR-NH2)

Hill coef. (Table 11): 0.41 ± 0.02
Relative affinity (Table 11): 25 ± 3%
biological activity compared to that of native GRF: preserved or increased
Structure (SMILES): CC[C@H](C)[C@H](NC(=O)[C@H](C)NC(=O)[C@H](CC(=O)O)NC(=O)[C@@H](C)NC(=O)[C@@H](N)Cc1ccc(O)cc1)C(=O)N[C@@H](Cc1ccccc1)C(=O)N[C@H](C(=O)N[C@@H](CC(N)=O)C(=O)N[C@@H](CO)C(=O)N[C@H](Cc1ccc(O)cc1)C(=O)N[C@@H](CCCNC(=N)N)C(=O)N[C@@H](CCCCN)C(=O)N[C@H](C(=O)N[C@@H](CC(C)C)C(=O)NCC(=O)N[C@@H](CCC(N)=O)C(=O)N[C@@H](CC(C)C)C(=O)N[C@@H](CO)C(=O)N[C@@H](C)C(=O)N[C@@H](CCCNC(=N)N)C(=O)N[C@@H](CCCCN)C(=O)N[C@@H](CC(C)C)C(=O)N[C@@H](CC(C)C)C(=O)N[C@@H](CCC(N)=O)C(=O)N[C@@H](CC(=O)O)C(=O)N[C@H](C(=O)N[C@@H](CCSC)C(=O)N[C@@H](CO)C(=O)N[C@@H](CCCNC(=N)N)C(N)=O)[C@@H](C)CC)C(C)C)[C@@H](C)O [D-Ala^2, D-Tyr^10]

Structure (SMILES): CCCC[C@H](NC(=O)[C@@H](NC(=O)[C@H](CC(=O)O)NC(=O)[C@H](CCC(N)=O)NC(=O)[C@H](CC(C)C)NC(=O)[C@H](CC(C)C)NC(=O)[C@H](CCCCN)NC(=O)[C@H](CCCNC(=N)N)NC(=O)[C@H](C)NC(=O)[C@H](CO)NC(=O)[C@H](CC(C)C)NC(=O)[C@H](CCC(N)=O)NC(=O)CNC(=O)[C@H](CC(C)C)NC(=O)[C@@H](NC(=O)[C@H](CCCCN)NC(=O)[C@H](CCCNC(=N)N)NC(=O)[C@H](Cc1ccc(O)cc1)NC(=O)[C@H](Cc1ccc(C(=O)c2ccccc2)cc1)NC(=O)[C@H](CC(N)=O)NC(=O)[C@@H](NC(=O)[C@H](Cc1ccccc1)NC(=O)[C@@H](NC(=O)[C@H](C)NC(=O)[C@H](CC(=O)O)NC(=O)[C@H](C)NC(=O)[C@@H](N)Cc1c[nH]cn1)[C@@H](C)CC)[C@@H](C)O)C(C)C)[C@@H](C)CC)C(=O)N[C@@H](CO)C(=O)N[C@@H](CCCNC(=N)N)C(N)=O [His^1, bpa^9, Nle^27] (H-HADAIFTN[Bpa]YRKVLGQLSARKLLQDI[Nle]SR-NH2)
Hill coef. (Table 7): 0.70 ± 0.06
Relative affinity (Table 7): 61.0 ± 7%

IC50 (Table 11): 6.84 ± 2.12 nM
Structure (SMILES): CC[C@H](C)[C@H](NC(=O)[C@H](C)NC(=O)[C@H](CC(=O)O)NC(=O)[C@H](C)NC(=O)[C@@H](N)Cc1ccc(O)cc1)C(=O)N[C@@H](Cc1ccccc1)C(=O)N[C@H](C(=O)N[C@@H](CC(N)=O)C(=O)N[C@@H](CO)C(=O)N[C@@H](Cc1ccc(O)cc1)C(=O)N[C@@H](CCCNC(=N)N)C(=O)N[C@@H](CCCCN)C(=O)N[C@H](C(=O)N[C@@H](CC(C)C)C(=O)NCC(=O)N[C@@H](CCC(N)=O)C(=O)N[C@@H](CC(C)C)C(=O)N[C@@H](CO)C(=O)N[C@@H](C)C(=O)N[C@@H](CCCNC(=N)N)C(=O)N[C@@H](CCCCN)C(=O)N[C@@H](CC(C)C)C(=O)N[C@@H](CC(C)C)C(=O)N[C@@H](CCC(N)=O)C(=O)N[C@@H](CC(=O)O)C(=O)N[C@H](C(=O)N[C@@H](CCSC)C(=O)N[C@@H](CO)C(=O)N[C@@H](CCCNC(=N)N)C(=O)NCCCCCCCC(=O)N[C@@H](CS)C(N)=O)[C@@H](C)CC)C(C)C)[C@@H](C)O [Octanoyl^30, Cys^31, [octanoyl^30,Cys^31] hGRF(1-29)NH2]

Hill coef. (Table 4): 0.61 ± 0.05
Relative affinity (Table 4): 19 ± 11%
Structure (SMILES): CC[C@H](C)[C@H](NC(=O)[C@H](C)NC(=O)[C@H](CC(=O)O)NC(=O)[C@H](C)NC(=O)[C@H](Cc1ccc(O)cc1)NC(=S)Nc1ccc(-c2c3ccc(=O)cc-3oc3cc(O)ccc23)c(C(=O)O)c1)C(=O)N[C@@H](Cc1ccccc1)C(=O)N[C@H](C(=O)N[C@@H](CC(N)=O)C(=O)N[C@@H](CO)C(=O)N[C@@H](Cc1ccc(O)cc1)C(=O)N[C@@H](CCCNC(=N)N)C(=O)N[C@@H](CCCCN)C(=O)N[C@H](C(=O)N[C@@H](CC(C)C)C(=O)NCC(=O)N[C@@H](CCC(N)=O)C(=O)N[C@@H](CC(C)C)C(=O)N[C@@H](CO)C(=O)N[C@@H](C)C(=O)N[C@@H](CCCNC(=N)N)C(=O)N[C@@H](CCCCN)C(=O)N[C@@H](CC(C)C)C(=O)N[C@@H](CC(C)C)C(=O)N[C@@H](CCC(N)=O)C(=O)N[C@@H](CC(=O)O)C(=O)N[C@H](C(=O)N[C@@H](CCSC)C(=O)N[C@@H](CO)C(=O)N[C@@H](CCCNC(=N)N)C(N)=O)[C@@H](C)CC)C(C)C)[C@@H](C)O [[Nα-fluorescein-5-thiocarbamyl]hGRF(1-29)NH2]

— patent US5854216A, “Marker for growth hormone-releasing factor receptors” (Universite de Montreal, priority 1996, dated 1998)
